# Experimental data as given in publication PMC12802951, “Unravelling the triad of penicillin-binding proteins, β-lactamase activity, and mRNA dynamics in Pseudomonas aeruginosa AmpC induction” (Journal of Antimicrobial Chemotherapy, 2025).
# Like-named read-outs stand apart in the source and are kept apart here.
# Key:
# PBP2 = biological target: T1, PBP2 (Pseudomonas aeruginosa, UniProt G3XCV7); assay: Bocillin-FL competition in whole cells; format: cell-based; conditions: intact PAO1 cells, 30 min incubation, covalent
# T1 construct: gene pbpA; native full-length protein in intact P. aeruginosa PAO1 cells, Bocillin-FL labelled
# T1 sequence (G3XCV7 1-646): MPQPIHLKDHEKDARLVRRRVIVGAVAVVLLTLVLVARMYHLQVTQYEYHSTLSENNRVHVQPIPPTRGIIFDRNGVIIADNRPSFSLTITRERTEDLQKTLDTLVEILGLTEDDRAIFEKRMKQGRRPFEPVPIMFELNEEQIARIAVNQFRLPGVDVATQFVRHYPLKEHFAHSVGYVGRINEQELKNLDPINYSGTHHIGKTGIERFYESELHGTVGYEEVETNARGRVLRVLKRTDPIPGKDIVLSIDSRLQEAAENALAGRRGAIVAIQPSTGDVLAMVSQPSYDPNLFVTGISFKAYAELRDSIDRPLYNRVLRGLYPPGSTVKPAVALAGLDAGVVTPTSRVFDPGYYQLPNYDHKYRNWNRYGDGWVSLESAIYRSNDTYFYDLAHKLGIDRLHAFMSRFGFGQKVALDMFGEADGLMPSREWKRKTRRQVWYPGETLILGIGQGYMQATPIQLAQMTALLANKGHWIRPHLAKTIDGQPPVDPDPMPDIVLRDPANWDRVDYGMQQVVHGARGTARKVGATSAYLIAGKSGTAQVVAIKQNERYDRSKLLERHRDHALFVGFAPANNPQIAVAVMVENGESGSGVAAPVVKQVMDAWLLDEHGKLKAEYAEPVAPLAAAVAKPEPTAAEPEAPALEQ
# From the text: Bocillin-FL competition in whole cells on PBP2
# PBP5 = biological target: T2, PBP5 (Pseudomonas aeruginosa, UniProt G3XD74); assay: Bocillin-FL competition in whole cells; format: cell-based; conditions: intact PAO1 cells, 30 min incubation, covalent
# T2 construct: gene dacC; native full-length protein in intact P. aeruginosa PAO1 cells, Bocillin-FL labelled
# T2 sequence (G3XD74 entry or part of it): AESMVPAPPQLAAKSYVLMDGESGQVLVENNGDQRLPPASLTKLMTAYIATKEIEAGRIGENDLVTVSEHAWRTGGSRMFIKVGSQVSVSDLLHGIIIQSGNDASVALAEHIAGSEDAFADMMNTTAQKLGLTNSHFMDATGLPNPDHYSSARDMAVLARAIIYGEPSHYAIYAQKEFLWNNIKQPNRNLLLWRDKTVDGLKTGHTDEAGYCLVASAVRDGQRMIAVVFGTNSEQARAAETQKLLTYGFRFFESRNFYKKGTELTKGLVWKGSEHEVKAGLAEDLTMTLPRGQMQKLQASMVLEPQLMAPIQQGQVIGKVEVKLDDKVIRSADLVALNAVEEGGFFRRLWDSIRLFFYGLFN
# PBP4 = biological target: T3, PBP4 (Pseudomonas aeruginosa, UniProt Q9HZG1); assay: Bocillin-FL competition in whole cells; format: cell-based; conditions: intact PAO1 cells, 30 min incubation, covalent
# T3 construct: gene PA3047; native full-length protein in intact P. aeruginosa PAO1 cells, Bocillin-FL labelled
# T3 sequence (Q9HZG1 entry or part of it): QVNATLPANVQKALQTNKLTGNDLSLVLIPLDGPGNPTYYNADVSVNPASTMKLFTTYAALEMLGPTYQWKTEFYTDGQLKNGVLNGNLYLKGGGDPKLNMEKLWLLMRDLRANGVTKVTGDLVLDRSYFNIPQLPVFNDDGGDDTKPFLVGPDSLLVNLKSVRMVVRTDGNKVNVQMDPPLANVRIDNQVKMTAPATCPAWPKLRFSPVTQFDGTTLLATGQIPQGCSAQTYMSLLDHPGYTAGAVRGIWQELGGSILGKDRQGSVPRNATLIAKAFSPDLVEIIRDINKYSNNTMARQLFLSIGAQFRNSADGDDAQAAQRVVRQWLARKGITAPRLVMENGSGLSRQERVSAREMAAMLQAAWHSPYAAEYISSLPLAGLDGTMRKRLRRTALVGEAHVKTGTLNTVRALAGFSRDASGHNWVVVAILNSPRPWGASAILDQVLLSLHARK
# From the text: Bocillin-FL competition in whole cells on PBP4
# PBP3 [1] = biological target: T4, PBP3 (Pseudomonas aeruginosa, UniProt G3XD46); assay: Bocillin-FL competition in whole cells; format: cell-based; set-up: gene ftsI; native full-length protein in intact P. aeruginosa PAO1 cells, Bocillin-FL labelled; conditions: intact PAO1 cells, 30 min incubation, covalent
# T4 sequence (G3XD46 whole entry): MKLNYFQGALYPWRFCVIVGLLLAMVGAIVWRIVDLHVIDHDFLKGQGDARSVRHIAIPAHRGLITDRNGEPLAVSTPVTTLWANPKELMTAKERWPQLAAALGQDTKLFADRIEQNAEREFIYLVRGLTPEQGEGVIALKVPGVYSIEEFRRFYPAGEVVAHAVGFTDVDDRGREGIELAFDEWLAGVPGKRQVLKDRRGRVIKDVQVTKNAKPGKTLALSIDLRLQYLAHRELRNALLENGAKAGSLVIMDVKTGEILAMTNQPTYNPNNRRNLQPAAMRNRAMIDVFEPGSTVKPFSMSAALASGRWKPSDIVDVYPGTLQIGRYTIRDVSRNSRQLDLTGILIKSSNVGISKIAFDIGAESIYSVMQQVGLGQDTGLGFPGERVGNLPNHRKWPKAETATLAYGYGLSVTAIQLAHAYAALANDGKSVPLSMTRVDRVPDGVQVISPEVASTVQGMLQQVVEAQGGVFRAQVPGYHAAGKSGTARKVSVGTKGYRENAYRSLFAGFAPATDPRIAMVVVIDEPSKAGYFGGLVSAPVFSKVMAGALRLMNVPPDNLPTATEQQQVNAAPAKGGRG
# PBP3 [2] = biological target: T4, PBP3; assay: biochemical; set-up: gene ftsI; native protein in lysed PAO1; species or system Pseudomonas aeruginosa PAO1; Bocillin FL labelling competition of PBPs in lysed P. aeruginosa PAO1
# From the text: Abstract Objectives The main objective of the present work was to dissect the interplay between penicillin-binding protein (PBP) occupancy, ampC transcriptional dynamics, and β-lactamase activity in Pseudomonas aeruginosa. Methods Using wild-type PAO1 and isogenic LMW-PBP knockout mutants (PAOΔdacB, PAOΔdacBdacC, and PAOΔdacBdacCpbpG), we assessed ampC induction following exposure to 18 β-lactams and β-lactamase inhibitors. PBP binding (IC50) was quantified via Bocillin-FL labelling. AmpC mRNA levels were measured by qRT-PCR, and β-lactamase activity was determined in crude extracts, periplasmic and extracellular fractions using nitrocefin and cefalotin substrates. […] Binding to PBP4 is a recognized trigger for ampC induction.
# AmpC = biological target: T5, AmpC (Pseudomonas aeruginosa, UniProt P24735); assay: inhibition of nitrocefin / cefalotin hydrolysis in crude extract; format: biochemical; conditions: crude extract of PAOΔdacBdacCpbpG; 500 mg/L in Results (Methods: 50 and 100 μM); both substrates
# T5 construct: native chromosomal enzyme in crude extract of constitutive AmpC-overproducing triple LMW-PBP knockout
# T5 sequence (P24735 27-397): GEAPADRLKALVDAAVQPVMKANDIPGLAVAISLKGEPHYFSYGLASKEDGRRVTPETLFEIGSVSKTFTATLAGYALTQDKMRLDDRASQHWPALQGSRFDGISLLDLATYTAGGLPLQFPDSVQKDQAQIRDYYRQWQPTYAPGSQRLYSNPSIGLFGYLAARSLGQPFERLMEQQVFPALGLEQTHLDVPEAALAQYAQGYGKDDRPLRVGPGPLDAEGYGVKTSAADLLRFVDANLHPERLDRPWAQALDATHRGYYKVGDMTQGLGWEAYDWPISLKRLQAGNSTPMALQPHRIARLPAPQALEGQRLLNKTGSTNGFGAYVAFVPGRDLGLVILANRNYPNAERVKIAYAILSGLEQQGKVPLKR
# [3] = read-out: Drug mg/L^a / DOR / AVI
# [4] = read-out: Drug mg/L^a / CAR / TZB
# [5] = read-out: Drug mg/L^a / MEM / FOX
# [6] = read-out: Drug mg/L^a / ETP / CAZ
# [7] = read-out: Drug mg/L^a / PIP / CLV
# [8] = read-out: Drug mg/L^a / MEC / SUL
# [9] = read-out: Drug mg/L^a / TIC / REL
compound,measurement,setting,value
NC(=O)[C@@H]1CC[C@@H]2CN1C(=O)N2OS(=O)(=O)O [avibactam],IC50,PBP2; [3],23.7 µM
same,IC50,PBP5; [3],12.4 µM
same,IC50,PBP4; [3],9.01 µM
same,IC50,PBP3 [1]; [3],38.8 µM
C[C@H]1[C@H](NC(=O)/C(=N\OC(C)(C)C(=O)O)c2csc(N)n2)C(=O)N1S(=O)(=O)O [aztreonam],IC50,PBP2; read-out: Drug mg/L^a / ATM,17 µM
same,IC50,PBP5; read-out: Drug mg/L^a / ATM,10.4 µM
same,IC50,PBP4; read-out: Drug mg/L^a / ATM,3.1 µM
same,IC50,PBP3 [2],0.184 µM
same,IC50,PBP3 [1]; read-out: Drug mg/L^a / ATM,1.75 µM
CC1(C)S[C@@H]2[C@H](NC(=O)C(C(=O)O)c3ccccc3)C(=O)N2[C@H]1C(=O)O (some centres unmarked) [carbenicillin],IC50,PBP2; [4],85.4 µM
same,IC50,PBP5; [4],129 µM
same,IC50,PBP3 [1]; [4],9.01 µM
CO/N=C(\C(=O)N[C@@H]1C(=O)N2C(C(=O)[O-])=C(C[N+]3(C)CCCC3)CS[C@H]12)c1csc(N)n1 [cefepime],IC50,PBP2; read-out: IPM / FEP,2 µM
same,IC50,PBP4; read-out: IPM / FEP,0.52 µM
same,IC50,PBP3 [1]; read-out: IPM / FEP,0.437 µM
CO[C@@]1(NC(=O)Cc2cccs2)C(=O)N2C(C(=O)O)=C(COC(N)=O)CS[C@@H]21 [cefoxitin],IC50,PBP2; [5],4750 µM
same,IC50,PBP5; [5],12.4 µM
same,IC50,PBP4; [5],47.7 µM
same,FOX IC50,"PBP3 [2]; lysed PAO1, covalent",10.7 µg/mL
same,IC50,PBP3 [1]; [5],5390 µM
CC(C)(O/N=C(\C(=O)N[C@@H]1C(=O)N2C(C(=O)[O-])=C(C[n+]3ccccc3)CS[C@H]12)c1csc(N)n1)C(=O)O [ceftazidime],IC50,PBP2; [6],2.73 µM
same,IC50,PBP4; [6],0.585 µM
same,IC50,PBP3 [2],0.11 µM
same,IC50,PBP3 [1]; [6],0.567 µM
O=C(O)[C@H]1/C(=C/CO)O[C@@H]2CC(=O)N21 [clavulanic acid],IC50,PBP2; [7],56.2 µM
same,IC50,PBP5; [7],18.1 µM
same,IC50,PBP4; [7],21.8 µM
same,IC50,PBP3 [1]; [7],30.5 µM
Cc1onc(-c2ccccc2Cl)c1C(=O)N[C@@H]1C(=O)N2[C@@H]1SC(C)(C)[C@@H]2C(=O)O [cloxacillin],% reduction in hydrolysis rate at 500 mg/L,AmpC,> 95%
C[C@@H](O)[C@H]1C(=O)N2C(C(=O)O)=C(S[C@@H]3CN[C@H](CNS(N)(=O)=O)C3)[C@H](C)[C@H]12 [doripenem],IC50,PBP2; [3],0.69 µM
same,IC50,PBP5; [3],2.14 µM
same,IC50,PBP4; [5],0.0476 µM
same,IC50,PBP3 [2],0.309 µM
same,IC50,PBP3 [1]; [3],1.05 µM
C[C@@H](O)[C@H]1C(=O)N2C(C(=O)O)=C(S[C@@H]3CN[C@H](C(=O)Nc4cccc(C(=O)O)c4)C3)[C@H](C)[C@H]12 [ertapenem],IC50,PBP2; [6],0.673 µM
same,IC50,PBP5; [6],1.7 µM
same,IC50,PBP4; [6],0.105 µM
same,IC50,PBP3 [2],0.4 µM
same,IC50,PBP3 [1]; [6],1.14 µM
C[C@@H](O)[C@H]1C(=O)N2C(C(=O)O)=C(SCCN=CN)C[C@H]12 [imipenem],IC50,PBP2; read-out: IPM / FEP,0.2 µM
same,IC50,PBP5; read-out: IPM / FEP,0.2 µM
same,IC50,PBP4; read-out: IPM / FEP,0.0334 µM
CC1(C)S[C@@H]2[C@H](N=CN3CCCCCC3)C(=O)N2[C@H]1C(=O)O [mecillinam],IC50,PBP2; [8],870 µM
same,IC50,PBP5; [8],1300 µM
same,IC50,PBP4; [8],648 µM
C[C@@H](O)[C@H]1C(=O)N2C(C(=O)O)=C(S[C@@H]3CN[C@H](C(=O)N(C)C)C3)[C@H](C)[C@H]12 [meropenem],IC50,PBP2; [5],3.99 µM
same,IC50,PBP5; [5],3.65 µM
same,IC50,PBP4; [5],0.0522 µM
CCN1CCN(C(=O)N[C@@H](C(=O)N[C@@H]2C(=O)N3[C@@H]2SC(C)(C)[C@@H]3C(=O)O)c2ccccc2)C(=O)C1=O [piperacillin],IC50,PBP2; [7],4.21 µM
same,IC50,PBP5; [7],6.09 µM
same,IC50,PBP4; [7],3.23 µM
same,IC50,PBP3 [2],0.0966 µM
same,IC50,PBP3 [1]; [7],1.7 µM
O=C(NC1CCNCC1)[C@@H]1CC[C@@H]2CN1C(=O)N2OS(=O)(=O)O [relebactam],IC50,PBP2; [9],17.1 µM
same,IC50,PBP5; [9],81.7 µM
same,IC50,PBP4; [9],24.4 µM
same,IC50,PBP3 [1]; [9],12.2 µM
CC1(C)[C@H](C(=O)O)N2C(=O)C[C@H]2S1(=O)=O [sulbactam],IC50,PBP2; [8],19.2 µM
same,IC50,PBP5; [8],8.96 µM
same,IC50,PBP4; [8],12.4 µM
same,IC50,PBP3 [1]; [8],9.09 µM
C[C@]1(Cn2ccnn2)[C@H](C(=O)O)N2C(=O)C[C@H]2S1(=O)=O [tazobactam],IC50,PBP2; [4],11.9 µM
same,IC50,PBP5; [4],15.9 µM
same,IC50,PBP4; [4],15.9 µM
same,IC50,PBP3 [1]; [4],13.4 µM
CC1(C)S[C@@H]2[C@H](NC(=O)[C@H](C(=O)O)c3ccsc3)C(=O)N2[C@H]1C(=O)O [ticarcillin],IC50,PBP2; [9],51.5 µM
same,IC50,PBP5; [9],682 µM
same,IC50,PBP3 [1]; [9],6.4 µM
